Test results published in patent US12729404B2, “Method and kit for testing drug hypersensitivity reactions caused by sulfonamide derivative-based antiepileptic drug and use of the kit” (CHANG GUNG MEMORIAL HOSPITAL, LINKOU, priority 2020, dated 2026).

Key:
Conditions in all cases: in vivo
HLA-B*13:01 [1] = biological target: T1, HLA-B*13:01 (Homo sapiens, UniProt P01889, A65T/A93T/A95T/D138N/D201E/D98Y/E176V/E204Q/E69M/E70A/G107R/K202T/L105A/L119I/N104T/N87E/Q94N/R106L/R155S/R169L/R180L/S101N/S121R/S35A/S48T/T118I/V127L/V36M/Y140L/Y91S)
HLA-B*13:01 [2] = biological target: T1, HLA-B*13:01; remark: listed apart in the source
HLA-B*51:01 or B*51:02 = test system: HLA-B*51:01 or B*51:02

- DHR (%) carrying the allele (HLA-B*13:01 [1]): 100%
- DHR N (allele carriers / patients) (HLA-B*13:01 [1]): 3/3
- Sensitivity (HLA-B*13:01 [1]): 100.00%
- Specificity (HLA-B*13:01 [1]): 88.52%
- Cases N (allele carriers / patients) (HLA-B*13:01 [2]): 5/7
- OR (HLA-B*13:01 [2]): 19.3
- Cases N (allele carriers / patients) (HLA-B*51:01 or B*51:02): 4/7
- OR (HLA-B*51:01 or B*51:02): 8.3
Structure (SMILES): NS(=O)(=O)Cc1noc2ccccc12 [zonisamide]
